Read-outs that look alike come from different tables or passages of the source.
Columns and labels:
[1] = molecular target: T1, STAT3 (aa 127-722) (Homo sapiens, UniProt P40763); experiment: SPR assay of STAT3 binding to immobilized EGFR pY1068 phosphododecapeptide; details: for inhibition at 10 µM / inhibition at 100 µM / inhibition of STAT3 binding to EGFR pY-peptide: SPR; for inhibition at 10 µM / inhibition at 100 µM: read-out: inhibition of STAT3 binding to EGFR pY-peptide; for % of max binding at 10 μm: pEGFRp-STAT3 binding (SPR) at pH 8, compound 10 μm; for % of max binding at 100 μm: pEGFRp-STAT3 binding (SPR) at pH 8, compound 100 μm; for inhibition at 100 µM / inhibition of STAT3 binding to EGFR pY-peptide: 100 μM
T1 construct: STAT3 (aa 127-722) at a concentration of 200 nM
T1 sequence (P40763 127-722 isoform P40763-3 limits assumed, species assumed): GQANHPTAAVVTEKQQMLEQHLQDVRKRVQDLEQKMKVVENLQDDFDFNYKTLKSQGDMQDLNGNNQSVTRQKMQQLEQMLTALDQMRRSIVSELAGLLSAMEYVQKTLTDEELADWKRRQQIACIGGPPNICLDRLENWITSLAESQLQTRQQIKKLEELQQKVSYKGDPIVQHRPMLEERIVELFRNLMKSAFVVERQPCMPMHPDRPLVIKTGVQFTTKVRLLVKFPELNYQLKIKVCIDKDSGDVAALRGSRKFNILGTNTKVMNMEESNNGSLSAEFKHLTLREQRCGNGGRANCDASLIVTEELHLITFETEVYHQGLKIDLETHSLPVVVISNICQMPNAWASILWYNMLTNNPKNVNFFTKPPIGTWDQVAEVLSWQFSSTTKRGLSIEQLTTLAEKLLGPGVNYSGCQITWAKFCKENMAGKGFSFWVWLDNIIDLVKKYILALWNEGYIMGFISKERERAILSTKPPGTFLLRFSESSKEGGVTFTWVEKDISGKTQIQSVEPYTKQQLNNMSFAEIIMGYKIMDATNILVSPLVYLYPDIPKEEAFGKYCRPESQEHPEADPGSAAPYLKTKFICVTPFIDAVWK
Description: Surface plasmon resonance (SPR) assay of STAT3 binding pY-peptide. STAT3 (aa 127-722) at a concentration of 200 nM in 20 mM Tris buffer (pH 8) was pre-incubated without or with compounds prior to injection onto an SA chip immobilized with phosphorylated and control non-phosphorylated biotinylated EGFR derived dodecapeptides based on sequence surrounding Y1068 (Shao et al., 2004), on a Biacore 3000 biosensor (Biacore inc., Piscataway N.J.) and analyzed as described (Bharadwaj et al., 2016).
Surface Plasmon Resonance (SPR) was performed on the 24 compounds to determine their ability to block binding of purified STAT3 to an immobilized phosphododecapeptide based on EGFR Y1068 (EGFR pY-peptide), as described (Xu et al., 2009).

[2] = test system: MDA-MB-231 cells; experiment: Anchorage-independent and dependent cell growth (MTT), MDA-MB-231; format: cell-based; details: NA = No Activity
Description: (§1) MDA-MB-231 cells were cultured for 48 hrs in complete DMEM with 10% FBS±compound (0/0.1/0.3/1/3/10/100 μM) in cell-culture-treated plates and viable cells quantitated using MTT. Relative % viability (viability after any treatment÷viability of untreated cells×100) was plotted as a function of Log [M] compound, and IC50 values calculated using GraphPad.
as §1, with “72” for “48”, “cell-culture-treated ultra-low attachment 96-well” for “cell-culture-treated”
(§2) Anchorage-independent and dependent cell growth. Cells were cultured in triplicates in complete DMEM±drug, in ultra-low attachment 96 well plates for 72 hrs or cell-culture treated plates for 48 hrs and viable cells were quantitated using MTT. Optical density (OD) was measured at 590 nm using a 96-well multi-scanner (Synergy H1 microplate reader, BioTek Inc, VT, USA). Relative % viability (viability after any treatment÷viability of untreated cells×100) was plotted along Y-axis. At least 2 replicates experiments were performed and were used for IC50 calculation using GraphPad software.

[3] = test system: G-CSF-stimulated pSTAT3; experiment: Inhibition of G-CSF-stimulated pSTAT3 in Kasumi-1 cells (Luminex, pSTAT3/GAPDH); format: cell-based; details: for activity at 10 µM: Kasumi 1, read-out: % of Control Stimulated pSTAT3; for activity at 10 µM / % of Control Stimulated pSTAT3: single concentration of 10 μM, G-CSF 100 ng/ml, pSTAT3/GAPDH relative to DMSO treated cells; for inhibition at 10 µM: Kasumi-1 cells, read-out: inhibition of G-CSF-induced pY-STAT3
Description: […] Total protein was assayed for pSTAT3 and GAPDH levels by Luminex. GAPDH-normalized pSTAT3 values were divided by the same for untreated cells and expressed as percentage. These values were plotted as a function of Log [M] compound, and IC50 calculated using GraphPad. Data from representative experiments from at least two repeats is shown.
Luminex bead-based assay. Luminex bead-based assays were used to determine levels of pSTAT3, pSTAT1, pSTAT5, and GAPDH, as described (Bharadwaj et al., 2015). […]

[4] = test system: MDA-MB-468 cells; experiment: Anchorage-independent and dependent cell growth (MTT), MDA-MB-468; format: cell-based; details: NA = No Activity
Description: as §1, with “MDA-MB-468” for “MDA-MB-231”
as §1, with “MDA-MB-468” for “MDA-MB-231”, “72” for “48”, “cell-culture-treated ultra-low attachment 96-well” for “cell-culture-treated”, “treatment viability” for “treatment÷viability”
as §2

[5] = Homo sapiens, MDA-MB-231, 72 h, anchorage independent, ultra-low attachment plates, 72 hrs, read-out: Growth AI IC50 231
[6] = Kasumi1 cells, G-CSF induced pSTAT3/GAPDH by Luminex
[7] = Homo sapiens, MDA-MB-468, 48 h, anchorage dependent, cell-culture treated plates, 48 hrs, read-out: Growth AD IC50 468
[8] = Homo sapiens, MDA-MB-468, 72 h, anchorage independent, ultra-low attachment plates, 72 hrs, read-out: Growth AI IC50 468
[9] = anchorage dependent, cell-culture treated plates, 48 hrs, read-out: Growth AD IC50 468
[10] = Homo sapiens, MDA-MB-231, 48 h, anchorage dependent, cell-culture treated plates, 48 hrs, read-out: Growth AD IC50 231
[11] = anchorage dependent, cell-culture treated plates, 48 hrs, read-out: Growth AD IC50 231
[12] = anchorage dependent, cell-culture treated plates, 48 hrs
[13] = anchorage independent, ultra-low attachment plates, 72 hrs

SMILES | inhibition at 10 µM [1] [%] | inhibition at 100 µM [1] [%] | % of max binding at 10 μm [1] [%] | % of max binding at 100 μm [1] [%] | IC50 [2, 5] [µM] | activity at 10 µM ([3]; Homo sapiens, Kasumi1 cells) [%] | inhibition at 10 µM ([3]; Homo sapiens) [%] | IC50 [4, 7] [µM] | IC50 [4, 8] [µM] | IC50 [4, 9] [µM] | IC50 [2, 10] [µM] | IC50 [2, 11] [µM] | other results
COc1ccc(/C=C/C(=O)c2cc(Br)ccc(=O)c2O)cc1 [SPEC-8, 5-bromo-2-hydroxy-3-[3-(4-methoxyphenyl)acryloyl]-2,4,6-cycloheptatrien-1-one] | 29 to 71 | 67 to 93 | 49.1 | 30.3 | 26.1 | 0 | 20 to 80 | – | – | – | – | – | IC50 [3, 6]: 4.1 µM
COc1ccc(Br)cc1/C=C/C(=O)c1ccc(NC(C)=O)cc1 [SPEC-29, N-(4-[(E)-3-(5-bromo-2-methoxyphenyl)prop-2-enoyl)phenyl]acetamide] | 29 to 71 | 67 to 93 | 69.6 | 22.1 | 9.5 ± 4.1 | 0 | 20 to 80 | 2.4 to 12.1 | 1.8 to 11.1 | 2.4 ± 2.5 | 3 to 12.2 | 3 ± 2.2 | inhibition of STAT3 binding to EGFR pY-peptide [1]: 78%; IC50 ([4]; anchorage independent, ultra-low attachment plates, 72 hrs, read-out: Growth AI IC50 468): 1.8 ± 1.6 µM; IC50 [3, 6]: 2.7 µM
O=C(O)COc1c(Br)cc(/C=C2\SC(=O)N(CC(=O)N3CCN(c4ccccc4)CC3)C2=O)cc1Br [SPEC-85, [2,6-dibromo-4-({2,4-dioxo-3-[2-oxo-2-(4-phenyl-1-piperazinyl)ethyl]-1,3-thiazolidin-5-ylidene}methyl)phenoxy]acetic acid] | 29 to 71 | – | 67.3 | 9.5 | – | 2 | 20 to 80 | – | – | – | – | – | inhibition of STAT3 binding to EGFR pY-peptide [1]: 95%; Growth AD IC50 468 [4, 12]: no activity; Growth AI IC50 468 [4, 13]: no activity; Growth AD IC50 231 [2, 12]: no activity; Growth AI IC50 231 [2, 13]: no activity; IC50 ([3]; Homo sapiens, Kasumi 1, Kasumi1 cells, G-CSF induced pSTAT3/GAPDH by Luminex): > 100 µM; G-CSF pSTAT3 IC50 [3, 6]: almost no activity
CC(=O)Nc1nc(C)c(-c2csc(Nc3ccccc3)n2)s1 [SPEC-93, N-(2-aniline-4′-methyl-4,5′-bi-1,3-thiazol-2′-yl)acetamide] | 29 to 71 | 67 to 93 | 116.8 | 28.3 | 15.7 ± 1.3 | 0 | 20 to 80 | – | – | – | – | – | –
COc1cc(/C=C2/SC(=O)NC2=O)ccc1OCc1ccc(Cl)cc1Cl [SPEC-98] | 29 to 71 | 67 to 93 | 70.4 | 7.8 | – | 20 | 20 to 80 | 25.6 to 65.2 | 64.1 ± 3.1 | 32.5 ± 3.7 | 25.6 to 65.2 | 25.6 ± 3.9 | –
CC1(C)CC(=O)c2sc(NC(=O)CSc3nnc(SCC(=O)Nc4nc5c(s4)C(=O)CC(C)(C)C5)s3)nc2C1 [SPEC-103] | – | – | 76.0 | 10.4 | – | – | – | – | – | – | – | – | % of Control Stimulated pSTAT3 ([3]; Kasumi1 cells): 46%
Cc1cc(NS(=O)(=O)c2ccc(NC(=O)COc3ccc(C(C)(C)c4ccccc4)cc3)cc2)nc(C)n1 [SPEC-106, N-(4-{[(2,6-dimethyl-4-pyrimidinyl)amino]sulfonyl}phenyl)-2-[4-(1-methyl-1-phenylethyl)phenoxy]acetamide] | 29 to 71 | 67 to 93 | 68.9 | 20.4 | 38.9 | 1 | 20 to 80 | 25.6 to 65.2 | 34.9 ± 1.3 | 44.7 | 25.6 to 65.2 | 39 | –
NC(=O)CCN1CCN(CCOC2Cc3cc(Cl)ccc3Sc3ccccc32)CC1 (centres unmarked) [SPEC-109] | – | – | 97.1 | 82.3 | – | – | – | – | – | – | – | – | % of Control Stimulated pSTAT3 ([3]; Kasumi1 cells): 1%

From patent publication US20220168322A1, “NOVEL STAT3 INHIBITORS IDENTIFIED BY STRUCTURE-BASED VIRTUAL SCREENING INCORPORATING SH2 DOMAIN FLEXIBILITY” (Board of Regents, The University of Texas System, priority 2018, published 2022)
